Laboratory results as given in ChEMBL document CHEMBL1909046, “DrugMatrix in vitro pharmacology data”.

Key:
[1] = DRUGMATRIX: GABAA, Muscimol, Central radioligand binding (ligand: [3H] Muscimol); assay type: cell membranes, Rattus norvegicus, Wistar, Brain, Membrane; settings: Not Active = under 50% inhibition at 10 µM
[2] = DRUGMATRIX: Glutamate, NMDA, Phencyclidine radioligand binding (ligand: [3H] TCP); assay type: cell membranes, Rattus norvegicus, Wistar, Cerebral cortex, Membrane; settings: Not Active = under 50% inhibition at 10 µM
[3] = DRUGMATRIX: Leukotriene, BLT (LTB4) radioligand binding (ligand: [3H]LTB4); assay type: cell membranes, Membrane; settings: u-937; Not Active = under 50% inhibition at 10 µM
Melanocortin receptor 3 = Melanocortin receptor 3 (Homo sapiens, UniProt P41968); assay type: cell membranes, Membrane; settings: hek293; also: in other assays of this panel Not Active means under 50% inhibition at 10 µM
Melanocortin receptor 3, sequence (P41968 whole entry): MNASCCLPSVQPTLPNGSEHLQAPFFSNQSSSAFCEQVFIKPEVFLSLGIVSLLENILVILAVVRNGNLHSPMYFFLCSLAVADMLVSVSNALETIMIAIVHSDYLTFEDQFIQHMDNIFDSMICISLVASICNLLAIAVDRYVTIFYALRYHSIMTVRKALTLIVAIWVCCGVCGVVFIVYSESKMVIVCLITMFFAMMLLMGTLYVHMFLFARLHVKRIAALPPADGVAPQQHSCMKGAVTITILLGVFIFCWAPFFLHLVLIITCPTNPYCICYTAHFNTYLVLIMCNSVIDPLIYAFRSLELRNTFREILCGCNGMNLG

[4] = target: Delta-type opioid receptor (Homo sapiens, UniProt P41143); assay type: cell membranes, HEK293, Membrane; settings: hek293; also: in other assays of this panel Not Active means under 50% inhibition at 10 µM
Delta-type opioid receptor, sequence (P41143 whole entry): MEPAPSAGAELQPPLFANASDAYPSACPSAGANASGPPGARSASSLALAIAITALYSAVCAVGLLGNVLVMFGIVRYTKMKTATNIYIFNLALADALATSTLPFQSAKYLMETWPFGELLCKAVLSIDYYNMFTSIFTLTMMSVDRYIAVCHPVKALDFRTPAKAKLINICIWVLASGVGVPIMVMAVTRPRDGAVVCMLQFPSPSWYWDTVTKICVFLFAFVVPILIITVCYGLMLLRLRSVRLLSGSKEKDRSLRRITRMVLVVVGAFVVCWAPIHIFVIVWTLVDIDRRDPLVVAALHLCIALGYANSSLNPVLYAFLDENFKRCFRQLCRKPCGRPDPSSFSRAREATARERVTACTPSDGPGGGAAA

[5] = DRUGMATRIX: Phosphodiesterase PDE4 enzyme inhibition (substrate: [3H]cAMP + cAMP); settings: u-937; Not Active = under 50% inhibition at 10 µM
[6] = target: T1, Angiotensin-converting enzyme (Oryctolagus cuniculus, UniProt P12822); assay type: tissue-based, Lung;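 also: enzymatic inhibition of angiotensin-converting enzyme measured with FAPGG as the substrate; in other assays of this panel Not Active means under 50% inhibition at 10 µM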
T1 sequence (P12822 whole entry): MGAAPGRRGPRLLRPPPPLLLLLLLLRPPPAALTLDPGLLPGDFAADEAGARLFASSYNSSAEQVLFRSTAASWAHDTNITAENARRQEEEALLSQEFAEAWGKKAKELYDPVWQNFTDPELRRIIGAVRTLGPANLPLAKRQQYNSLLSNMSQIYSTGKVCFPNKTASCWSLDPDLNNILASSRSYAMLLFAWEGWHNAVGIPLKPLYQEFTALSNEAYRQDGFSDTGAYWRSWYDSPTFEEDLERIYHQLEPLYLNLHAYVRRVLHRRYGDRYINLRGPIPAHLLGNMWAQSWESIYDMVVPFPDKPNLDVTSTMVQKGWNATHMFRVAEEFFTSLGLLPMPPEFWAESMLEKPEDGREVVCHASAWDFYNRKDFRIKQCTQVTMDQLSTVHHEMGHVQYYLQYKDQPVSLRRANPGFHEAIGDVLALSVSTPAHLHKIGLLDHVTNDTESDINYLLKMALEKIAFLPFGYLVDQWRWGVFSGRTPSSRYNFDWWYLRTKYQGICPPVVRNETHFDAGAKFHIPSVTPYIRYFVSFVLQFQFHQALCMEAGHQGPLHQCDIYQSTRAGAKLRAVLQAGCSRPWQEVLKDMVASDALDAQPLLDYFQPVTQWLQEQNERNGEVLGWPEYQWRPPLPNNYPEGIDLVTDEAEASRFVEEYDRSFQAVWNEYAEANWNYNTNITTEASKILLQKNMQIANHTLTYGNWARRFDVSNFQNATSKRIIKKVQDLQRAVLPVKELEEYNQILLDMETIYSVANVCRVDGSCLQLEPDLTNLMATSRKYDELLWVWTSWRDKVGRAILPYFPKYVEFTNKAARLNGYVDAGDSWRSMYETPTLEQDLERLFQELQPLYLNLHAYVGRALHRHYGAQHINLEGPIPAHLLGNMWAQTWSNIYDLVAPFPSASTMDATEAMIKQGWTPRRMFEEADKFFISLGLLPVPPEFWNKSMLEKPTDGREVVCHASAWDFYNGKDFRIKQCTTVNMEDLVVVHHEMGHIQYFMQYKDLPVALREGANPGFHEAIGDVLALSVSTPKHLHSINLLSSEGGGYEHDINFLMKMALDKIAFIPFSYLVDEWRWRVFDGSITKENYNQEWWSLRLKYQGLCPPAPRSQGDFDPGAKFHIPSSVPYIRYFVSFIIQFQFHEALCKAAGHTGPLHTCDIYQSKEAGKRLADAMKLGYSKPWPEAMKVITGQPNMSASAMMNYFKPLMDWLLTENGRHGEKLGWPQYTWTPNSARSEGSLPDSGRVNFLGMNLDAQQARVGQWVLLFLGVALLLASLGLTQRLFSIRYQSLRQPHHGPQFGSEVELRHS

Adenosine receptor A2a = Adenosine receptor A2a (Homo sapiens, UniProt P29274); assay: DRUGMATRIX: Adenosine A2A radioligand binding (ligand: […]); assay type: cell membranes, HEK293, Membrane; settings: hek293; Not Active = under 50% inhibition at 10 µM
Adenosine receptor A2a, sequence (P29274 whole entry): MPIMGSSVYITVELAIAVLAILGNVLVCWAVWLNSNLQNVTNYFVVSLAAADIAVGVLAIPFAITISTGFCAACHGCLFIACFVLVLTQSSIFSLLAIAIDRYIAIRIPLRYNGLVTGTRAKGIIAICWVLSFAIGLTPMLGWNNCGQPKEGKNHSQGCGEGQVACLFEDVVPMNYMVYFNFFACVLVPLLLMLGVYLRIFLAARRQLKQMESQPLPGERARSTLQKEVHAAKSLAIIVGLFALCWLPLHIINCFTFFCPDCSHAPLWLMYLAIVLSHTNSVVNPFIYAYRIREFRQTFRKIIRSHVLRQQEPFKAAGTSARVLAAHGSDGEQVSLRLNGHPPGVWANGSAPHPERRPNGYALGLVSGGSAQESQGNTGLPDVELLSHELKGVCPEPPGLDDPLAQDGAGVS

| Structure (SMILES) | IC50 [1] | Ki [1] | IC50 [2] | Ki [2] | IC50 [3] | Ki [3] | IC50 (Melanocortin receptor 3) | Ki (Melanocortin receptor 3) | IC50 [4] | Ki [4] | IC50 [5] | Ki [5] | IC50 [6] | Ki [6] | IC50 (Adenosine receptor A2a) | Ki (Adenosine receptor A2a) | IC50 ([2]; read-out: IC50) [µM] | Ki ([2]; read-out: Ki) [µM] |
| --- | --- | --- | --- | --- | --- | --- | --- | --- | --- | --- | --- | --- | --- | --- | --- | --- | --- | --- |
| COc1cc2c(c3oc(=O)c4c(c13)CCC4=O)[C@@H]1C=CO[C@@H]1O2 [AFLATOXIN] | Not Active | Not Active | Not Active | Not Active | Not Active | Not Active | Not Active | Not Active | Not Active | Not Active | Not Active | Not Active | Not Active | Not Active | Not Active | Not Active | – | – |
| CC1(C)O[C@@H]2C[C@H]3[C@@H]4C[C@H](F)C5=CC(=O)CC[C@]5(C)[C@H]4[C@@H](O)C[C@]3(C)[C@]2(C(=O)CO)O1 [FLURANDRENOLIDE] | Not Active | Not Active | Not Active | Not Active | Not Active | Not Active | Not Active | – | Not Active | – | Not Active | Not Active | Not Active | – | Not Active | – | – | – |
| CC1(C)O[C@@H]2C[C@H]3[C@@H]4C[C@H](F)C5=CC(=O)C=C[C@]5(C)[C@@]4(F)[C@@H](O)C[C@]3(C)[C@]2(C(=O)CO)O1 [FLUOCINOLONE ACETONIDE] | Not Active | Not Active | Not Active | Not Active | Not Active | Not Active | Not Active | – | Not Active | – | Not Active | Not Active | Not Active | – | Not Active | – | – | – |
| CC(C(=O)O)c1cccc(C(=O)c2ccccc2)c1 (configuration not stated) [KETOPROFEN] | Not Active | Not Active | Not Active | Not Active | Not Active | Not Active | Not Active | – | Not Active | – | Not Active | Not Active | Not Active | – | Not Active | – | – | – |
| NC(=O)NO [HYDROXYUREA] | Not Active | Not Active | Not Active | Not Active | Not Active | Not Active | Not Active | – | Not Active | – | Not Active | Not Active | Not Active | – | Not Active | – | – | – |
| O=c1ccc2ccccc2o1 [COUMARIN] | Not Active | Not Active | Not Active | Not Active | Not Active | Not Active | Not Active | – | Not Active | – | Not Active | Not Active | Not Active | – | Not Active | – | – | – |
| CN1C(=O)COc2c(C(=O)NC3CN4CCC3CC4)cc(Cl)cc21 (configuration not stated) [AZASETRON] | Not Active | Not Active | Not Active | Not Active | Not Active | Not Active | Not Active | – | Not Active | – | Not Active | Not Active | Not Active | – | Not Active | – | – | – |
| C[C@H]1C[C@H]2[C@@H]3CCC4=CC(=O)C=C[C@]4(C)[C@@]3(Cl)[C@@H](O)C[C@]2(C)[C@@]1(O)C(=O)CO [BECLOMETHASONE] | Not Active | Not Active | Not Active | Not Active | Not Active | Not Active | Not Active | – | Not Active | – | Not Active | Not Active | Not Active | – | Not Active | – | – | – |
| Cc1cc(=O)n(-c2ccccc2)n1C [ANTIPYRINE] | Not Active | Not Active | Not Active | Not Active | Not Active | Not Active | Not Active | – | Not Active | – | Not Active | Not Active | Not Active | – | Not Active | – | – | – |
| COc1cccc2c1C(=O)c1c(O)c3c(c(O)c1C2=O)C[C@@](O)(C(=O)CO)C[C@@H]3O[C@H]1C[C@H](N)[C@@H](O)[C@H](C)O1 [EPIRUBICIN] | Not Active | Not Active | Not Active | Not Active | Not Active | Not Active | Not Active | – | Not Active | – | Not Active | Not Active | Not Active | – | Not Active | – | – | – |
| C[C@](O)(CS(=O)(=O)c1ccc(F)cc1)C(=O)Nc1ccc(C#N)c(C(F)(F)F)c1 [(R)-BICALUTAMIDE] | Not Active | Not Active | Not Active | Not Active | Not Active | Not Active | Not Active | – | Not Active | – | Not Active | Not Active | Not Active | – | Not Active | – | – | – |
| COc1ccc2c(c1)[C@]13CCCC[C@@H]1[C@H](C2)N(C)CC3 [DEXTROMETHORPHAN] | Not Active | Not Active | – | – | Not Active | Not Active | Not Active | – | Not Active | – | Not Active | Not Active | Not Active | – | Not Active | – | 2.42 | 1.64 |
| COP(=O)(OC)OC=C(Cl)Cl [DICHLORVOS] | Not Active | Not Active | Not Active | Not Active | Not Active | Not Active | Not Active | – | Not Active | – | Not Active | Not Active | Not Active | – | Not Active | – | – | – |
| CCN[C@@H]1C[C@H](N)[C@@H](O[C@H]2OC(CN)=CC[C@H]2N)[C@H](O)[C@H]1O[C@H]1OC[C@](C)(O)[C@H](NC)[C@H]1O [NETILMICIN] | Not Active | Not Active | Not Active | Not Active | Not Active | Not Active | Not Active | – | Not Active | – | Not Active | Not Active | Not Active | – | Not Active | – | – | – |
| CN(C)/N=N/c1[nH]cnc1C(N)=O [DACARBAZINE] | Not Active | Not Active | Not Active | Not Active | Not Active | Not Active | Not Active | – | Not Active | – | Not Active | Not Active | Not Active | – | Not Active | – | – | – |
| O=NN(CCCl)C(=O)NCCCl [CARMUSTINE] | Not Active | Not Active | Not Active | Not Active | Not Active | Not Active | Not Active | – | Not Active | – | Not Active | Not Active | Not Active | – | Not Active | – | – | – |
| Oc1ccc(OCc2ccccc2)cc1 [MONOBENZONE] | Not Active | Not Active | Not Active | Not Active | Not Active | Not Active | Not Active | – | Not Active | – | Not Active | Not Active | Not Active | – | Not Active | – | – | – |
| O=C1CC2(CCCC2)CC(=O)N1CCCCN1CCN(c2ncccn2)CC1 [BUSPIRONE] | Not Active | Not Active | Not Active | Not Active | Not Active | Not Active | Not Active | – | Not Active | – | Not Active | Not Active | Not Active | – | Not Active | – | – | – |
| Nc1ccn([C@@H]2CS[C@H](CO)O2)c(=O)n1 [LAMIVUDINE] | Not Active | Not Active | Not Active | Not Active | Not Active | Not Active | Not Active | – | Not Active | – | Not Active | Not Active | Not Active | – | Not Active | – | – | – |
